In patent US20090312380A1, “NOVEL COMPOSITIONS AND METHODS” (priority 2006, published 2009):
Blank lines part the entries; values can stand above or below the compound they belong to.

Columns and labels:
Assay type in all cases: physicochemical
[1] = Powder dissolution in 0.1N HCl (37° C.); conditions: for dissolution characteristics: 0.1N HCl, 37° C., FIG. 4, compared with samples B and C; for dissolution kinetics: in the media, FIGS. 4 and 5
Description: FIG. 4: Powder dissolution profiles in 0.1N HCl (37° C.) of samples of irbesartan. Dissolution experiments were executed in 0.1N HCt (37° C.) on the four micronised samples A-D of irbesartan. […] Thus with all other parameters being equal, it can be seen that the improved dissolution profile directly correlates to the increased water surface area of samples A and D.

[2] = Gravimetric vapour sorption (GVS), water vapour adsorption; conditions: for water vapour adsorption (comparison): GVS, compared with samples B or C
Text: GVS is a method traditionally used to detect quantitative weight changes of samples as a function of the relative humidity (RH). Samples, which can comprise solid-state samples such as powders and tablets, but also liquids, are exposed to a defined humidity profile. The corresponding weight change is continuously recorded via an ultra-microbalance. Defined humidity levels are established by mixing defined ratios of a dry carrier gas, usually nitrogen, and a wet stream, typically a water vapour saturated carrier gas such as nitrogen. The RH level is then controlled by the ratio of the dry:wet stream. To maintain isothermal conditions, the GVS apparatus which comprises a microbalance and humidification unit is set up in an incubator system held at a defined temperature. The primary information obtained by a typical commercial GVS system is: • Kinetics of water uptake: • The kinetic of the water uptake is a mass vs. time plot at constant RH level. The equilibrium between sample and humidity can be determined from this information. • Sorption isotherms: • The equilibrium weight changes at each humidity are related to the dry mass of the sample (i.e. the equilibrium mass at 0% RH). The equilibrium weight changes as a function of the RH level are the corresponding sorption isotherms of the sample. Typical sorption isotherms comprise adsorption, i.e. increasing RH levels, and desorption, i.e. decreasing RH levels, cycles. Typically, RH ranges from 0-95% RH are covered. For this purpose, water vapour sorption experiments can be carried out as follows: • Adsorption segment range 0-98% RH, preferably 0-50% RH. • Adsorption segment RH-step size of 10% RH or smaller, preferably 5% RH or 2.5% RH. • Desorption segment range 98-0% RH, preferably 50-0% RH. • Desorption segment RH-step size of 10% RH or smaller, preferably 5% RH or 2.5% RH. • Equilibration times at each humidity of 15 minutes and longer, preferably 30 minutes and longer, most preferably 60 minutes and longer. The important factor here is that all water vapour sorption uptakes used for further evaluation do reach equilibrium, i.e. that the weight change over time within each RH-step kinetic should be very small at the end of each RH segment. For these purposes, typical equilibration times are given. • Isothermal temperature in the range 5-50° C., preferably 25-37° C., most preferably about 25° C. • Sample masses of 10-50 mg, preferably 15-50 mg. […] Compression/compaction of the sample should be avoided in order to ensure that there are enough voids in any powder sample to allow the water vapour to penetrate. From these experiments, the primary information obtained is the sorption kinetic (mass vs. time at constant humidity) as well as the conventional sorption isotherm (weight change related to dry value vs. RH level), as previously described. The four samples A-D of irbesartan were also subjected to GVS to assess the extent of any water adsorption. […] The water adsorption results obtained from the GVS analysis are illustrated in Table 3.

[3] = Water surface area from GVS data, Excess Surface Work (ESW) model; conditions: for Water Surface Area (WSA): ESW adsorption model, GVS adsorption runs
Description: The xy-data pairs used for the sorption isotherms (mRH, RH-levels) can also be used for a different approach to describe the sorption isotherm. Here, the change in chemical potential Δμ for the sorption process at each relative humidity (and at temperature T) is calculated:
with: R=Universal Gas Constant • T=Temperature • p=water partial pressure at humidity RH and temperature T • ps=water vapour saturation pressure at temperature T
Based on the change in chemical potential Δμ, an energetic term φ can be calculated for each relative humidity, termed excess surface work (ESW) according to J. Adolphs and M. J. Setzer, Journal of Colloid and Interface Science, vol. 180, pp. 70-76, 1996:
with: Φ=excess surface work • Δμ=change in chemical potential • nads=number of moles of water adsorbed in equilibrium at humidity RH
A plot of Φ/RT vs. nads can then be generated, to allow the value of nads at the minimum value of Φ/RT to be deduced. This value of nads corresponds to nmono.
The calculated monolayer coverage nmono obtained from the application of the gas sorption models to GVS data can be re-calculated to water surface area Awater, taking into account the mean cross sectional area aH2O occupied by one water molecule upon adsorption:
with: Awater=water surface area [m^2/g] • aH2O mean cross sectional area of one water molecule adsorbed 10^−19 m^2/molecule • nmono=apparent amount adsorbed in the monolayer [mol] • NL=Lochschmidt number=6×10^23 molecules/mol • mdry (sample)=dry mass of sample [g]
Likewise, the determination of the ESW water surface area is illustrated for sample A as follows.
A plot of Φ/RT versus the change in mass for sample A was then generated (see FIG. 3). From this, it could be deduced that the minimum value of Φ/RT corresponded to a change in mass of 0.0369 mg, the apparent monolayer amount. This is turn equated to a WSA of 6.65 m^2/g, using equation (A4) above, wherein mdry=18.57 mg.

dissolution characteristics [1]: enhanced dissolution characteristics | Water Adsorption ([2]; 5 % RH): 0.06 wt % | Water Adsorption ([2]; 10 % RH): 0.09 wt % | Water Adsorption ([2]; 15 % RH): 0.12 wt % | Water Adsorption ([2]; 20 % RH): 0.14 wt % | Water Adsorption ([2]; 25 % RH): 0.17 wt % | Water Adsorption ([2]; 30 % RH): 0.20 wt % | Water Adsorption ([2]; 35 % RH): 0.22 wt % | Water Adsorption ([2]; 40 % RH): 0.24 wt % | Water Adsorption ([2]; 50 % RH): 0.29 wt % | Water Adsorption ([2]; 60 % RH): 0.34 wt % | Water Adsorption ([2]; 70 % RH): 0.39 wt % | Water Adsorption ([2]; 80 % RH): 0.44 wt % | Water Adsorption ([2]; 90 % RH): 0.52 wt % | water vapour adsorption (comparison) [2]: greater water vapour adsorption | Rel. adsorbed amount n ([2]; RH 0.33 %): 0.0258 wt % | Abs. adsorbed amount n ([2]; RH 4.98 %): 0.0110 mg | Rel. adsorbed amount n ([2]; RH 4.98 %): 0.0592 wt % | Abs. adsorbed amount n ([2]; RH 10.01 %): 0.0166 mg | Rel. adsorbed amount n ([2]; RH 10.01 %): 0.0894 wt % | Abs. adsorbed amount n ([2]; RH 15.00 %): 0.0219 mg | Rel. adsorbed amount n ([2]; RH 15.00 %): 0.1179 wt % | Abs. adsorbed amount n ([2]; RH 19.99 %): 0.0265 mg | Rel. adsorbed amount n ([2]; RH 19.99 %): 0.1427 wt % | Abs. adsorbed amount n ([2]; RH 25.02 %): 0.0320 mg | Rel. adsorbed amount n ([2]; RH 25.02 %): 0.1723 wt % | Abs. adsorbed amount n ([2]; RH 30.00 %): 0.0369 mg | Rel. adsorbed amount n ([2]; RH 30.00 %): 0.1987 wt % | Rel. adsorbed amount n ([2]; RH 34.98 %): 0.2207 wt % | Rel. adsorbed amount n ([2]; RH 40.02 %): 0.2439 wt % | Rel. adsorbed amount n ([2]; RH 49.98 %): 0.2902 wt % | Rel. adsorbed amount n ([2]; RH 60.00 %): 0.3392 wt % | Rel. adsorbed amount n ([2]; RH 70.02 %): 0.3855 wt % | Rel. adsorbed amount n ([2]; RH 79.99 %): 0.4372 wt % | Rel. adsorbed amount n ([2]; RH 90.01 %): 0.5152 wt % | Rel. adsorbed amount n ([2]; RH 93.03 %): 0.5233 wt % | Water Surface Area (WSA) [3]: 6.7 m^2/g | Water Surface Area (WSA) ([3]; listed as sample A): 6.65 m^2/g | apparent monolayer amount (change in mass at minimum of Φ/RT) ([3]; ESW model, mdry=18.57 mg): 0.0369 mg
SMILES: CCCCC1=NC2(CCCC2)C(=O)N1Cc1ccc(-c2ccccc2-c2nnn[nH]2)cc1 [Sample A, irbesartan]
dissolution kinetics [1]: significantly faster dissolution kinetics

dissolution profile ([1]; compared with samples A and D): significantly poorer dissolution profile | Water Adsorption ([2]; 5 % RH): 0.03 wt % | Water Adsorption ([2]; 10 % RH): 0.04 wt % | Water Adsorption ([2]; 15 % RH): 0.06 wt % | Water Adsorption ([2]; 20 % RH): 0.07 wt % | Water Adsorption ([2]; 25 % RH): 0.09 wt % | Water Adsorption ([2]; 30 % RH): 0.10 wt % | Water Adsorption ([2]; 35 % RH): 0.11 wt % | Water Adsorption ([2]; 40 % RH): 0.13 wt % | Water Adsorption ([2]; 50 % RH): 0.15 wt % | Water Adsorption ([2]; 60 % RH): 0.18 wt % | Water Adsorption ([2]; 70 % RH): 0.20 wt % | Water Adsorption ([2]; 80 % RH): 0.23 wt % | Water Adsorption ([2]; 90 % RH): 0.28 wt % | Water Surface Area (WSA) [3]: 3.0 m^2/g
SMILES: CCCCC1=NC2(CCCC2)C(=O)N1Cc1ccc(-c2ccccc2-c2nnn[nH]2)cc1 [Sample B, irbesartan]

Water Adsorption ([2]; 5 % RH): 0.04 wt % | Water Adsorption ([2]; 10 % RH): 0.07 wt % | Water Adsorption ([2]; 15 % RH): 0.08 wt % | Water Adsorption ([2]; 20 % RH): 0.09 wt % | Water Adsorption ([2]; 25 % RH): 0.11 wt % | Water Adsorption ([2]; 30 % RH): 0.13 wt % | Water Adsorption ([2]; 35 % RH): 0.14 wt % | Water Adsorption ([2]; 40 % RH): 0.15 wt % | Water Adsorption ([2]; 50 % RH): 0.18 wt % | Water Adsorption ([2]; 60 % RH): 0.21 wt % | Water Adsorption ([2]; 70 % RH): 0.23 wt % | Water Adsorption ([2]; 80 % RH): 0.27 wt % | Water Adsorption ([2]; 90 % RH): 0.31 wt % | Water Surface Area (WSA) [3]: 4.3 m^2/g
SMILES: CCCCC1=NC2(CCCC2)C(=O)N1Cc1ccc(-c2ccccc2-c2nnn[nH]2)cc1 [Sample C, irbesartan]

dissolution characteristics [1]: enhanced dissolution characteristics | Water Adsorption ([2]; 5 % RH): 0.07 wt % | Water Adsorption ([2]; 10 % RH): 0.10 wt % | Water Adsorption ([2]; 15 % RH): 0.13 wt % | Water Adsorption ([2]; 20 % RH): 0.16 wt % | Water Adsorption ([2]; 25 % RH): 0.19 wt % | Water Adsorption ([2]; 35 % RH): 0.23 wt % | Water Adsorption ([2]; 40 % RH): 0.26 wt % | Water Adsorption ([2]; 50 % RH): 0.33 wt % | Water Adsorption ([2]; 60 % RH): 0.39 wt % | Water Adsorption ([2]; 70 % RH): 0.46 wt % | Water Adsorption ([2]; 80 % RH): 0.52 wt % | Water Adsorption ([2]; 90 % RH): 0.63 wt % | water vapour adsorption (comparison) [2]: greater water vapour adsorption | Water Surface Area (WSA) [3]: 6.5 m^2/g
SMILES: CCCCC1=NC2(CCCC2)C(=O)N1Cc1ccc(-c2ccccc2-c2nnn[nH]2)cc1 [Sample D, irbesartan]
dissolution kinetics [1]: significantly faster dissolution kinetics
